Values of other authors, collected in patent US12551454B2, “Isoproterenol compositions and methods” (Endo Operations Limited, priority 2020, dated 2026).

Conditions: more potent than its (S)-enantiomer

Question: With `CC(C)NC[C@H](O)c1ccc(O)c(O)c1` (single isomer, unassigned) [(R)-enantiomer of Isoproterenol] as the compound, how does the “potency relative to (S)-enantiomer” value read?
Answer: Its value is about 90 times.
